Laboratory results as given in patent publication US11382921B2, “Use of compounds in preparation of a medicament for treatment of hemorrhagic stroke” (priority 2017, dated 2022).

Tests used:
[1] = test system: C57B mouse model of cerebral hemorrhage; assay: Determination of intracerebral hemorrhage (hemorrhage area, brain hemoglobin content) in collagenase-induced intracerebral hemorrhage model; assay type: in vivo; settings: C57B mice
Procedure: (§1) 112 clean grade health C57 male mice (8˜10 week, 20-22 g) were purchased from Beijing Vital River Laboratory Animal Technology Co. Ltd. Feeding conditions: 22° C.˜26° C., humidity 50%˜60%. The mice were grouped, fed with standard feed and purified water, and subjected to adaptive feeding for 1 week.
Establishment of Intracerebral hemorrhage model: After weighing body weight of mice, anesthesia was induced by 5% enflurane, and maintained by 2% enflurane mixed with 70% N2O and 30% O2. Mice were fixed on a stereotactic apparatus in the prone position and disinfected topically. The skin of the animals was incised to expose the skull for drilling. 0.3 μl of 0.35UVII collagenase was slowly injected with a micro sampler. The needle was kept for 5 min then slowly pulled out for 5 min, and the skull drilling was covered by bone glue. Animals were sutured, and subjected to routine disinfection. In the sham operation group, the needle was inserted in the same way, but without injection. The solvent or Triol was administered by intraperitoneal injection at 60 mg/kg 1 h after modeling. […]
chloral hydrated peritoneal was injected intraperitoneally for anesthesia at 24 hours after modeling. […] The hemoglobin content in the brain was measured with a hemoglobin detection kit.

[2] = test system: C57B mouse model of cerebral hemorrhage; assay: Neurobehavioral scoring (circle test, adhesive paper test, modified Garcia score) in collagenase-induced intracerebral hemorrhage model; assay type: in vivo; settings: C57B mice, 60 mg/kg i.p. 1 h after modeling
Procedure: FIG. 2. […] A. Circle test; Adhesive paper test; B. Time duration for contacting adhesive paper; C. Time consumption to tear off adhesive paper; *p<0.05, ***p<0.001, n=12˜23 animals/group. con: normal; sham: sham-operated group; ICH: cerebral hemorrhage model; vehicle: solvent.
FIG. 3. […] Modified Garcia score (A-D) is used to evaluate somatosensory and motor function at 24 hours after cerebral hemorrhage in C57B mice: A. Nose hair contact test; B. Limb symmetry test; C. Forelimb walking test, D. Overall nerve function Score; n=12˜23 animals/group, *p<0.05, **p<0.01, ***p<0.001. con: normal; sham: sham-operated group; ICH: cerebral hemorrhage model; vehicle: solvent.
as §1
Establishment of Intracerebral hemorrhage model: After weighing body weight of mice, anesthesia was induced by 5% enflurane, and maintained by 2% enflurane mixed with 70% N2O and 30% O2. Mice were fixed on a stereotactic apparatus in the prone position and disinfected topically. The skin of the animals was incised to expose the skull for drilling. 0.3 μl of 0.35UVII collagenase was slowly injected with a micro sampler. The needle was kept for 5 min then slowly pulled out for 5 min, and the skull drilling was covered by bone glue. Animals were sutured, and subjected to routine disinfection. In the sham operation group, the needle was inserted in the same way, but without injection. The solvent or Triol was administered by intraperitoneal injection at 60 mg/kg 1 h after modeling.
C57 mice were divided into 5 groups using random number method, namely normal control group (n=12), sham operation group (n=12), cerebral hemorrhage group (n=26), cerebral hemorrhage+solvent intraperitoneal injection 1 h after modeling group (n=26), and cerebral hemorrhage+Triol intraperitoneal injection 1 h after modeling group (n=26).
The neurological function was measured 24 hours after the cerebral hemorrhage model was established.

In the case of C[C@@]12CCCC1C1C[C@@H](O)[C@@]3(O)C[C@@H](O)CC[C@]3(C)C1CC2 (stereo partly drawn) [Triol, 5α-androst-3β,5,6β-triol], the “hemoglobin content of the hemorrhagic hemisphere (amount of hemorrhage)” value ([1]; 60 mg/kg i.p. 1 h after modeling, 24 h, vs cerebral hemorrhage model group, p<0.01 (FIG. 1B)) is reported as “decreased significantly”, the “hemorrhage area (volume) of the hemisphere brain with collagenase injection” value ([1]; Triol 60 mg/kg intraperitoneal 1 h after modeling, 24 h later (FIG. 1A)) is reported as “significantly reduced” and the “adhesive paper test: time consumption to remove adhesive paper” value ([2]; 24 h, p<0.001 (FIG. 2C)) is reported as “significantly reduced”. For the same molecule, the “modified Garcia score: beard touch avoidance (nose hair contact test)” value ([2]; 24 h, p<0.001 (FIG. 3A)) was “significantly restored”, the “neurological function scores (overall, modified Garcia)” value ([2]; 24 h, p<0.001 (FIG. 3D)) was “significantly improved” and the “modified Garcia score: symmetry of the limbs' movement” value ([2]; 24 h, p<0.01 (FIG. 3B)) was “significantly improved”. For the same molecule, the “adhesive paper test: time duration for contacting adhesive paper” value ([2]; 24 h, p<0.05 (FIG. 2B)) was “significantly reduced”, the “modified Garcia score: forelimb walking” value ([2]; 24 h, p<0.05 (FIG. 3C)) was “significantly improved” and the “circle test: time taken to go out of the center of the circle to any point of the circle edge” value ([2]; 24 h after cerebral hemorrhage (FIG. 2A)) was “has a tendency to decrease”.
